Experimental findings from patent US8889660B2, “Methods for treating obesity or an obesity related condition” (Case Western Reserve University, priority 2010, dated 2014) are described below.

Test [1] relates to wild type mice. The test is described as follows: Injection in wild type mice, glycemia. The format is in vivo.
Test [2] deals with retinoic acid receptor (RAR). The test is described as follows: Activation of retinoic acid response element (RARE) / RAR. Conditions: FIGS. 1A-B, 7 and 8. The format is cell-based. An excerpt:
FIG. 7 is a histogram showing the activation of retinoic acid response element (RARE) by all-trans-retinol (ROL), (13R)-all-trans-13,14-dihydroretinol (DROL R) and (13S)-all-trans-13,14-dihydroretinol (DROL S);
FIG. 8 is a histogram showing the activation of retinoic acid response element (RARE) by all-trans-retinoic acid (RA), (13R)-all-trans-13,14-dihydroretinoic acid (DRA R) and (13S)-all-trans-13,14-dihydroretinoic acid (DRA S); and
The at least one receptor may also include a retinoic acid receptor (RAR), such as RAR-α, RAR-β and RAR-γ which, when activated, translocates to a cell nucleus, binds to hormone response element on DNA, and elicits expression or transexpresssion of gene products. Alternatively, at least one response element, such as the RAR response element (RARE), can be activated.

The target in test [3] is retinol binding protein 4 (RBP4) (Homo sapiens, UniProt P02753). The test can be described thus: Binding to RBP4 by fluorescence quenching. The conditions noted are these: FIG. 9. The source says:
FIG. 9 is a series of graphs showing the binding of (R)-all-trans-13,14-dihydroretinol and (S)-all-trans-13,14-dihydroretinol to RBP4, as determined by fluorescence quenching.
In another aspect of the present invention, the marker corresponding to the level and/or activity of an all-trans-retinol:all-trans-13,14-dihydroretinol saturase polypeptide may comprise a metabolite, such as a retinoid, associated with all-trans-retinol:all-trans-13,14-dihydroretinol saturase activity. The marker can include, for example, a retinoid having a saturated C13-14 double bond. More particularly, the retinoid having a saturated C13-14 double bond can include all-trans-13,14-dihydroretinol and/or all-trans-13,14-dihydrotretinoic acid. […] Increased levels of RBP4 are associated with the metabolic syndrome, diabetic disease and correlate with increased insulin resistance, obesity and visceral adiposity. Various techniques known in the art may be used to detect dihydroretinoid metabolite levels in a tissue sample, including, but not limited to, chromatography-based methods, electrophoresis and sedimentation, mass spectroscopy, and/or antibody-based methods. […]

The target in test [4] is T1, G-protein-coupled receptor 40 (GPR40) (Homo sapiens, UniProt O14842).
T1 construct: expressed in transfected cells; host or cells: GPR40-expressing recombinant cells
T1 sequence (O14842 whole entry, species assumed): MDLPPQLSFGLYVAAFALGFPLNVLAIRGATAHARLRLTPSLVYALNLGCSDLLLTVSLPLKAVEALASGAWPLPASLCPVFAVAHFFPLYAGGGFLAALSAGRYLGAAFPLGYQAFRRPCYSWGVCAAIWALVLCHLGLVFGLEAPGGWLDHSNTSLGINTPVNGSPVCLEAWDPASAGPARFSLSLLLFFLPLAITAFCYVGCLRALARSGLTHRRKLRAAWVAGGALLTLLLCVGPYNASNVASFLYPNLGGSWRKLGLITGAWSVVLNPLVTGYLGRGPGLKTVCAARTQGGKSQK
The test can be described thus: Calcium responses of GPR40-expressing cells (receptor screening). The format is cell-based. Conditions: calcium responses of GPR40 and Ga16 cells, FIGS. 1A-B. Here is the method:
FIGS. 1A-B are a series of histographs showing the screening of potential receptors for all-trans-13,14-dihydroretinoic acid. FIG. 1A is a histogram showing calcium responses of G-protein-coupled receptor 40 and Ga16 cells to 100 μM fatty acids and retinoic acids. FIG. 2A is a histogram showing calcium responses to retinoic acid compounds at 10 μM;
The activation of GPR40 by all-trans-13,14-dihydroretinoic acid is studied in vitro by measuring the calcium flux and internalization of GPR40 in response to all-trans-13,14-dihydroretinoic in GPR40-expressing recombinant cells. In collaboration with Dr. de Lera University of Vigo, Spain, we have produced synthetic enantiomerically pure (R) or (S) all-trans-13,14-dihydroretinol and all-trans-13,14-dihydroretinoic acid and we have determined the stereospecificity of the RetSat catalyzed reaction. Activation of GPR40 by all-trans-13,14-dihydroretinoic acid leading to secretion of insulin is studied by measuring the level of secreted insulin from INS-1 insulinoma cells or from primary pancreatic β-cells primed with all-trans-13,14-dihydroretinoic acid.

Entries after “also recorded” stand apart in the source; their conditions may differ.

In the case of `CC1=C(/C=C/C(C)=C/C=C/C(C)CCO)C(C)(C)CCC1` (stereo not drawn) [all-trans-13,14-dihydroretinol], the “effect on blood glucose after injection” value in test [1] is reported as “prolonged hypoglycemia”. Turning to `CC1=C(/C=C/C(C)=C/C=C/[C@@H](C)CCO)C(C)(C)CCC1` [(S)-all-trans-13,14-dihydroretinol, (13S)-13,14-Dihydroretinol], the “activation of retinoic acid receptor (RAR/RARE)” value (“activation … (RAR/RARE)” for short) in test [2] is on record as “can also activate RAR”. In test [3], the “binding to RBP4” value is “associated with the carrier protein retinol binding protein 4 (RBP4)”. The corresponding values for `CC1=C(/C=C/C(C)=C/C=C/[C@H](C)CCO)C(C)(C)CCC1` [(R)-all-trans-13,14-dihydroretinol, (13R)-13,14-Dihydroretinol] are “can also activate RAR” and “associated with the carrier protein retinol binding protein 4 (RBP4)”.

On to `CC1=C(/C=C/C(C)=C/C=C/[C@H](C)CC(=O)O)C(C)(C)CCC1` (stereo in doubt) [(R)-all-trans-13,14-dihydroretinoic acid], for which the “activation … (RAR/RARE)” value in test [2] is “can activate RAR”. Same read-out and setting: as for `CC1=C(/C=C/C(C)=C/C=C/[C@@H](C)CC(=O)O)C(C)(C)CCC1` (stereo in doubt) [(S)-all-trans-13,14-dihydroretinoic acid], the entry is “can activate RAR”. In the case of `CC1=C(/C=C/C(C)=C/C=C/C(C)CC(=O)O)C(C)(C)CCC1` (stereo not drawn) [all-trans-13,14-dihydroretinoic acid], the “activation of GPR40” value in test [4] is listed as “activator; also recorded: can be activated by all-trans-13,14-dihydroretinoic acid”. Besides, the “activation … (RAR/RARE)” value in test [2] was “activator”.
